Experimental data from US7060718B2, “Arylsulfonanilide ureas” (Amgen Inc., priority 1998, dated 2006).

Legend:
HeLa cells = test: Tumor cell growth arrest in culture, Alamar Blue assay (HeLa); format: cell-based; details: Homo sapiens, concentration at which total growth inhibition occurred, 72 hours of treatment, triplicate
Procedure: (§1) The ability of test compounds to arrest the growth of tumor cells in culture was evaluated using HeLa cells, derived from a human cervical adenocarcinoma, and obtained from the American Type Culture Collection (ATCC, Rockville, Md.). Cells were grown in culture in the usual way. Test compounds were dosed in triplicate at concentrations ranging from 5 μM to 50 μM, and the cellular growth rate was calculated by harvesting the cells after 72 hours of treatment and measuring their metabolic activity using an Alamar Blue assay (Biosource International, Camarillo, Calif.). The degree of metabolic activity in the culture is proportional to the number of living cells. See, Ahmed et al., J. Immunol. Methods 1994, 170, 211. The change in growth rate for cells treated with test compounds was normalized to the growth of untreated cells and a plot of normalized cellular growth vs. compound concentration was made. The concentration at which total growth inhibition (TGI) occurred was determined. Compounds were similarly evaluated for cell growth inhibition using MCF-7/ ADR cells.

MCF-7/ADR cells = test: Cell growth inhibition (MCF-7/ADR), evaluated similarly; format: cell-based; details: Homo sapiens, NCI/ADR-RES, concentration at which total growth inhibition occurred
Procedure: as §1

Compound | IC (TGI) (HeLa cells) [µM] | melting point [°C] | IC (TGI) (MCF-7/ADR cells) [µM]
COc1ccc(NS(=O)(=O)c2c(F)c(F)c(F)c(F)c2F)cc1NC(N)=O [Compound 5] | < 5 | 226 | < 5
CCOC(=O)CNC(=O)Nc1cc(NS(=O)(=O)c2c(F)c(F)c(F)c(F)c2F)ccc1OC [Compound 6] | > 40 | 164 to 170 | > 40
COc1ccc(NS(=O)(=O)c2c(F)c(F)c(F)c(F)c2F)cc1NC(=O)n1nccc1N [Compound 7] | < 5 | 140 to 144 | < 5
COc1ccc(NS(=O)(=O)c2c(F)c(F)c(F)c(F)c2F)cc1NC(=O)NCc1ccco1 [Compound 8] | < 5 | 208 | < 5
COc1ccc(NS(=O)(=O)c2c(F)c(F)c(F)c(F)c2F)cc1NC(=O)N1CCOCC1 [Compound 9] | 5 to 40 |  | 5 to 40
COc1ccc(NS(=O)(=O)c2c(F)c(F)c(F)c(F)c2F)cc1NC(=O)NCC(O)CO (centres unmarked) [Compound 10] | 5 to 40 |  | 5 to 40
COc1ccc(NS(=O)(=O)c2c(F)c(F)c(F)c(F)c2F)cc1NC(=O)NCC(N)=O [Compound 11] | > 40 |  | > 40
COc1ccc(NS(=O)(=O)c2c(F)c(F)c(F)c(F)c2F)cc1NC(=O)NC(CO)CO [Compound 12] | > 40 |  | > 40
COc1ccc(NS(=O)(=O)c2c(F)c(F)c(F)c(F)c2F)cc1NC(=O)NCCO [Compound 13] | 5 to 40 |  | > 40
COc1ccc(NS(=O)(=O)c2c(F)c(F)c(F)c(F)c2F)cc1NC(=O)NCCCO [Compound 14] | 5 to 40 |  | > 40
COc1ccc(NS(=O)(=O)c2c(F)c(F)c(F)c(F)c2F)cc1NC(=O)N(CCO)CCO [Compound 15] | > 40 |  | > 40
COc1ccc(NS(=O)(=O)c2c(F)c(F)c(F)c(F)c2F)cc1NC(=O)Nc1ccccc1 [Compound 16] | 5 to 40 |  | > 40
COc1ccc(NS(=O)(=O)c2c(F)c(F)c(F)c(F)c2F)cc1NC(=O)Nc1nccs1 [Compound 17] | > 40 |  | > 40
COc1ccc(NS(=O)(=O)c2c(F)c(F)c(F)c(F)c2F)cc1NC(=O)n1ncnc1N [Compound 18] | < 5 |  | < 5
COc1ccc(NS(=O)(=O)c2c(F)c(F)c(F)c(F)c2F)cc1NC(=O)Nc1nnn[nH]1 [Compound 19] | < 5 |  | 5 to 40
COc1ccc(NS(=O)(=O)c2c(F)c(F)c(F)c(F)c2F)cc1NC(=O)Nc1nncs1 [Compound 20] | 5 to 40 |  | 5 to 40
COCCNC(=O)Nc1cc(NS(=O)(=O)c2c(F)c(F)c(F)c(F)c2F)ccc1OC [Compound 21] | 5 to 40 |  | > 40
